Measured values from patent US11161839B2, “2-quinolone derived inhibitors of BCL6” (Cancer Research Technology Limited, priority 2017, dated 2021).

Target: BCL6 (Homo sapiens (Human), UniProt P41182)
Test: assays described in the Examples section (not specified which)
Settings: tested compounds outside desired/preferred activity
Protocol: DC50 values (compound concentration at which 50% of endogenous BCL6 protein is degraded) were determined in SUDHL-4 cells (American Type Culture Collection) in an immunofluorescence-based assay using an InCell2200 high content imaging system (GE Healthcare). Briefly, 40 μL of lymphoma suspension cells cultured in RPMI 1640-10% FBS (Sigma-Aldrich or PAN Biotech UK Ltd) were platted on fibronectin (Sigma catalogue F1141)-coated 384 well Cell Carrier Ultra plate (Perkin Elmer catalogue 6057300) at 1.2 104 cells/well. After 20 hours cell culture at 37° C./C02 incubator, compounds were dispensed in the cell culture plate using ECHO550 acoustic dispenser (Labcyte, Inc.), as 8 point-concentration response (ranging from 5 nM to 10 μM) in 0.67% final DMSO concentration. Cells were incubated with compound for 2 hours at 37° C./C02 incubator followed by fixation in 4.5% formaldehyde (37% formaldehyde solution, Sigma catalogue F8775) at room temperature for 15 min. After fixing, cells were washed in 1×TBS (Tris Buffer Saline) using a Power Washer 384 (Tecan Group Ltd). Blocking and cell permeabilisation were performed by incubating the fixed cells for 1 hour at room temperature in 1×TBS, 5% BSA, 1% Triton X100, followed by three washes on PW384 plate washer. Primary and secondary antibodies were prepared in 1×TBS, 1% BSA, 0.2% Triton X100. BCL6 expression was detected by incubating the cells for 1 h30 with BCL6 rabbit polyclonal antibody (Sigma Catalogue HPA004899) at 1:250, 0.8 μg/ml, followed by 1 hour in chicken anti-Rabbit Alexa 488 conjugated antibody (Life Technology) at 1:500. After incubation in each antibody, cells were washes four times in 1×TBS-0.05% tween on PW384 plate washer. Cells were finally incubated for 60 min with nuclear staining RedDot2 dye (Biotium) at 0.5× the stock concentration in 1×TBS. BCL6 expression in the absence or presence of compound was detected on InCell2200 with 20× objective and quantified on InCell Analyser 3.7.2 workstation (GE Healthcare). The % response at each concentration was calculated by normalising BCL6 expression in the presence of compound to the appropriate high (DMSO) and low (DMSO with 7 μM CCT369260) controls.
The volume of medium containing 2000 cells in the control well was calculated and this volume of cells was transferred from every well of the assay plates to the corresponding well of the fresh plates containing compound. After 14 days, CellTiter Glo reagent (Promega) was added to the medium in each well of the assay plate at a ratio of 1:2, mixed on a plate shaker, then incubated at room temperature for 10 minutes. Luminescence was measured using an Envision plate reader (Perkin Elmer) and the relative luminescence at each compound concentration, compared to DMSO alone, was calculated. IC50 were determined using a 4-parameter curve fit in Dotmatics (Bishops Stortford, UK).

Question: `CC(Nc1cc(=O)n(C)c2ccc(Nc3nc(N4C[C@H](C)C[C@H](C)C4)nc(C(F)(F)F)c3Cl)cc12)c1ncccn1` (stereo partly drawn) [6-((5-chloro-2-((3S,5R)-3,5-dimethylpiperidin-1-yl)-6-(trifluoromethyl)pyrimidin-4-yl)amino)-1-methyl-4-((1-(pyrimidin-2-yl)ethyl)amino)quinolin-2(1H)-one] was tested. Which “activity in the assays described in the Examples section” value (from here on “activity in the assays described”) did it give?
Answer: not to exhibit the preferred activity

Question: `CNC(=O)CNc1cc(=O)[nH]c2ccc(Nc3ccnc(Cl)c3C#N)cc12` [2-((6-((2-chloro-3-cyanopyridin-4-yl)amino)-2-oxo-1,2-dihydroquinolin-4-yl)amino)-N-methylacetamide] was tested. Which “activity in the assays described” value did it give?
Answer: did not exhibit the desired activity

Question: How did the “activity in the assays described” value turn out when `CC(Nc1cc(=O)[nH]c2ccc(Nc3ccnc(Cl)c3C#N)cc12)c1cnn(C)c1` (stereo not shown) [2-chloro-4-((4-((1-(1-methyl-1H-pyrazol-4-yl)ethyl)amino)-2-oxo-1,2-dihydroquinolin-6-yl)amino)nicotinonitrile] was run?
Answer: did not exhibit the desired activity

Question: With `CC(CN(C)C)Nc1cc(=O)n(C)c2ccc(Nc3ccnc(Cl)c3C#N)cc12` (stereo not shown) [2-chloro-4-((4-((1-(dimethylamino)propan-2-yl)amino)-1-methyl-2-oxo-1,2-dihydroquinolin-6-yl)amino)nicotinonitrile] as the molecule, how does the “activity in the assays described” value read?
Answer: did not exhibit the desired activity
